Read-outs that look alike come from different tables or passages of the source.
System: pediatric subjects 2 to <17 years
[1] = Group I, Dose Level 1, LD 0.25/CD 0.2 μg/kg/hr, N = 8, safety population
[2] = Group I, Dose Level 2, LD 0.50/CD 0.4 μg/kg/hr, N = 6, safety population
[3] = Group I, Dose Level 3, LD 1.00/CD 0.7 μg/kg/hr, N = 6, safety population
[4] = Group I, Dose Level 4, LD 1.00/CD 2.00 μg/kg/hr, N = 6, safety population
[5] = Group II, Dose Level 1, LD 0.25/CD 0.2 μg/kg/hr, N = 8, safety population
[6] = Group II, Dose Level 2, LD 0.50/CD 0.4 μg/kg/hr, N = 8, safety population
[7] = Group II, Dose Level 3, LD 1.00/CD 0.7 μg/kg/hr, N = 9, safety population
[8] = Group II, Dose Level 4, LD 1.00/CD 2.00 μg/kg/hr, N = 8, safety population

Compound: Cc1cccc([C@H](C)c2cnc[nH]2)c1C [dexmedetomidine]
- Drug-related TEAE: Bradycardia [1]: 0 n (%)
- Drug-related TEAE: Hypertension [1]: 0 n (%)
- Drug-related TEAE: Hypotension [1]: 0 n (%)
- Drug-related TEAE: Sedation [1]: 0 n (%)
- Number of Drug-related TEAE [1]: 0
- Subjects with at least 1 Drug-Related TEAE [1]: 0 n (%)
- Drug-related TEAE: Bradycardia [2]: 0 n (%)
- Drug-related TEAE: Hypertension [2]: 0 n (%)
- Drug-related TEAE: Hypotension [2]: 0 n (%)
- Drug-related TEAE: Sedation [2]: 0 n (%)
- Number of Drug-related TEAE [2]: 0
- Subjects with at least 1 Drug-Related TEAE [2]: 0 n (%)
- Drug-related TEAE: Bradycardia [3]: 1 (16.7) n (%)
- Drug-related TEAE: Hypertension [3]: 1 (16.7) n (%)
- Drug-related TEAE: Hypotension [3]: 0 n (%)
- Drug-related TEAE: Sedation [3]: 0 n (%)
- Number of Drug-related TEAE [3]: 2
- Subjects with at least 1 Drug-Related TEAE [3]: 1 (16.7) n (%)
- Drug-related TEAE: Bradycardia [4]: 1 (16.7) n (%)
- Drug-related TEAE: Hypertension [4]: 0 n (%)
- Drug-related TEAE: Hypotension [4]: 1 (16.7) n (%)
- Drug-related TEAE: Sedation [4]: 2 (33.3) n (%)
- Number of Drug-related TEAE [4]: 4
- Subjects with at least 1 Drug-Related TEAE [4]: 4 (66.7) n (%)
- Drug-related TEAE: Bradycardia [5]: 0 n (%)
- Drug-related TEAE: Chills [5]: 0 n (%)
- Drug-related TEAE: Hypertension [5]: 0 n (%)
- Drug-related TEAE: Sedation [5]: 0 n (%)
- Number of Drug-related TEAE [5]: 0
- Subjects with at least 1 Drug-Related TEAE [5]: 0 n (%)
- Drug-related TEAE: Bradycardia [6]: 0 n (%)
- Drug-related TEAE: Chills [6]: 0 n (%)
- Drug-related TEAE: Hypertension [6]: 0 n (%)
- Drug-related TEAE: Sedation [6]: 0 n (%)
- Number of Drug-related TEAE [6]: 0
- Subjects with at least 1 Drug-Related TEAE [6]: 0 n (%)
- Drug-related TEAE: Bradycardia [7]: 1 (11.1) n (%)
- Drug-related TEAE: Chills [7]: 1 (11.1) n (%)
- Drug-related TEAE: Hypertension [7]: 1 (11.1) n (%)
- Drug-related TEAE: Sedation [7]: 0 n (%)
- Number of Drug-related TEAE [7]: 3
- Subjects with at least 1 Drug-Related TEAE [7]: 2 (22.2) n (%)
- Drug-related TEAE: Bradycardia [8]: 0 n (%)
- Drug-related TEAE: Chills [8]: 0 n (%)
- Drug-related TEAE: Hypertension [8]: 3 (37.5) n (%)
- Drug-related TEAE: Sedation [8]: 1 (12.5) n (%)
- Number of Drug-related TEAE [8]: 4
- Subjects with at least 1 Drug-Related TEAE [8]: 4 (50.0) n (%)
- treatment-related TEAE: chills (human, in vivo): 1 subjects
- treatment-related TEAE: hypotension (human, in vivo): 1 subjects
- deaths (safety population): No deaths
